The numbers were not newly measured in US20050266042A1, “Methods and apparatus for treatment of aneurysmal tissue” (Medtronic Vascular, Inc., priority 2004, published 2005), which cites them from elsewhere.

The conditions of the data set: for route of elimination / clearance: in vivo.

`C[C@H](CS)C(=O)N1CCC[C@H]1C(=O)O` [captopril]: for the setting “given orally”, the bioavailability result is recorded as “about 75%”.

Consider `CCC(=O)O[C@@H](O[P@](=O)(CCCCc1ccccc1)CC(=O)N1C[C@H](C2CCCCC2)C[C@H]1C(=O)O)C(C)C` [fosinopril], for which the “route of elimination / clearance” value is “balanced elimination by the liver and kidneys”.

As to `NCCCC[C@H](N[C@@H](CCc1ccccc1)C(=O)O)C(=O)N1CCC[C@H]1C(=O)O` [lisinopril], the “time to peak concentrations in the plasma” value (oral administration) is recorded as “about 7 hours”.

Turning to `CCOC(=O)[C@H](CCc1ccccc1)N[C@@H](C)C(=O)N1CC2(C[C@H]1C(=O)O)SCCS2` [spirapril], the “route of elimination / clearance” value is “balanced elimination by the liver and kidneys”.
